Target: GLP-1 Receptor (Homo sapiens, UniProt P43220)
Experiment: GLP-1R agonist cAMP stimulation assay (HEK293/GLP1R/CRE-Luc cells, HTRF cAMP)
Type: cell-based
Details: HEK293/CRE-Luc cells stably expressing GLP-1 Receptor; 30 min, 37° C.
Method: Activation of GLP-1 receptor is known to stimulate cyclic AMP (cAMP) production in cells which indicates primary coupling to the Gαs subunit of the G protein heterotrimeric complex.
To optimize functional activity directed toward Gαs coupling, a HEK293/CRE-Luc cell line developed by HDB stably expressing the GLP-1 Receptor was used. […] 1×10^5 cells/mL HEK293/GLP1R/CRE-LUC(HD Biosciences) cell suspensions prepared with assay buffer[DPBS containing 0.5 mM IBMX (Sigma, Cat #I5879) and 0.1% BSA (GENVIEW, Cat #FA016-100g)], 10 uL cell suspensions were added to each well of previous generated assay plate which already contains 50 nl compound at 200×concentration using ThermoFisher Multidrop Combi (1000 cells/well). Seal the plate and incubate at 37° C. with 5% CO2 for 30 min.
After incubation the cAMP assay signal was generated using cAMP dynamic 2 Kit (Cisbio). 5 μL cAMP-d2 working solution was added to each well, followed with 5 μL Anti-cAMP antibody-cryptate working solution added to each well using ThermoFisher Multidrop Combi. Incubate at room temperature for 1 hour protected from light.

GLP-1 Receptor, sequence (P43220 24-463): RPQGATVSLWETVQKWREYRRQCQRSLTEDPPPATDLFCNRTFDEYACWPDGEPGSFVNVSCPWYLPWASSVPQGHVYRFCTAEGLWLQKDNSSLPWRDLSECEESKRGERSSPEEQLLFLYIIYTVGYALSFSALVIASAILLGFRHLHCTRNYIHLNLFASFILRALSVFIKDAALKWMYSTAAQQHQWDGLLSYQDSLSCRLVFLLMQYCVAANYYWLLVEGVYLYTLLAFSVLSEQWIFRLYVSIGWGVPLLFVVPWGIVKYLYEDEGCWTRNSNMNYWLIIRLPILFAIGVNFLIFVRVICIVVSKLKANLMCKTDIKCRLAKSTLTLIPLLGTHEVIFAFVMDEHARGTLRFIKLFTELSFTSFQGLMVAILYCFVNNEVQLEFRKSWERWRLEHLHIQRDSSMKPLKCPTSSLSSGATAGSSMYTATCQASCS

Row | SMILES | GLP1R cAMP Stimulation DR: pEC50
1 | O=C(O)c1ccc2nc(C[C@H]3CC[C@H](Oc4ccnc(Cc5ccc(Cl)cc5F)n4)CC3)n(C[C@@H]3CCO3)c2n1 [Compound 175b, 3-{[(2S)-oxetan-2-yl]methyl}-2-{[trans-4-({2-[(4-chloro-2-fluorophenyl)methyl]pyrimidin-4-yl}oxy)cyclohexyl]methyl}-3H-imidazo[4,5-b]pyridine-5-carboxylic acid] | 10.2
2 | O=C(O)c1ccc2nc(C[C@H]3CC[C@H](Oc4ccnc(Cc5ccc(Cl)cc5)n4)CC3)n(C[C@@H]3CCO3)c2c1 [Compound 176a, 1-{[(2S)-oxetan-2-yl]methyl}-2-{[trans-4-({2-[(4-chlorophenyl)methyl]pyrimidin-4-yl}oxy)cyclohexyl]methyl}-1H-1,3-benzodiazole-6-carboxylic acid] | 9.4
3 | O=C(O)c1ccc2nc(C[C@H]3CC[C@H](Oc4ccnc(Cc5ccc(Cl)cc5)n4)CC3)n(C[C@@H]3CCO3)c2n1 [Compound 177a, 3-{[(2S)-oxetan-2-yl]methyl}-2-{[trans-4-({2-[(4-chlorophenyl)methyl]pyrimidin-4-yl}oxy)cyclohexyl]methyl}-3H-imidazo[4,5-b]pyridine-5-carboxylic acid] | 10.4
4 | COCCn1c(C[C@H]2CC[C@H](Oc3ccnc(Cc4ccc(Cl)cc4)n3)CC2)nc2ccc(C(=O)O)nc21 [Compound 179a, 3-(2-methoxyethyl)-2-{[trans-4-({2-[(4-chlorophenyl)methyl]pyrimidin-4-yl}oxy)cyclohexyl]methyl}-3H-imidazo[4,5-b]pyridine-5-carboxylic acid] | 8.6
5 | Cn1c(C[C@H]2CC[C@H](Oc3ccnc(Cc4ccc(Cl)cc4)n3)CC2)nc2ccc(C(=O)O)nc21 [Compound 180a, 3-methyl-2-{[trans-4-({2-[(4-chlorophenyl)methyl]pyrimidin-4-yl}oxy)cyclohexyl]methyl}-3H-imidazo[4,5-b]pyridine-5-carboxylic acid] | 8.6
6 | O=C(O)c1ccc2nc(C[C@H]3CC[C@H](Oc4cccc(Cc5ccc(Cl)cc5)n4)CC3)n(C[C@@H]3CCO3)c2n1 [Compound 181a, 3-{[(2S)-oxetan-2-yl]methyl}-2-{[trans-4-({6-[(4-chlorophenyl)methyl]pyridin-2-yl}oxy)cyclohexyl]methyl}-3H-imidazo[4,5-b]pyridine-5-carboxylic acid] | 10.1
7 | N#Cc1ccc(Cc2nccc(O[C@H]3CC[C@H](Cc4nc5ccc(C(=O)O)nc5n4C[C@@H]4CCO4)CC3)n2)cc1 [Compound 182a, 3-{[(2S)-oxetan-2-yl]methyl}-2-{[trans-4-({2-[(4-cyanophenyl)methyl]pyrimidin-4-yl}oxy)cyclohexyl]methyl}-3H-imidazo[4,5-b]pyridine-5-carboxylic acid] | 10.2
8 | O=C(O)c1ccc2nc(CN3CCC(Oc4nn(Cc5ccc(Cl)cc5F)cc4Cl)CC3)n(C[C@@H]3CCO3)c2n1 [Compound 183a, 2-{[4-({4-chloro-1-[(4-chloro-2-fluorophenyl)methyl]-1H-pyrazol-3-yl}oxy)piperidin-1-yl]methyl}-3-{[(2S)-oxetan-2-yl]methyl}-3H-imidazo[4,5-b]pyridine-5-carboxylic acid] | 9.1
9 | O=C(O)c1ccc2nc(CN3CCC(n4ncc5ccc(Cc6ccc(Cl)cc6F)nc54)CC3)n(C[C@@H]3CCO3)c2n1 [Compound 185a, 2-[(4-{6-[(4-chloro-2-fluorophenyl)methyl]-1H-pyrazolo[3,4-b]pyridin-1-yl}piperidin-1-yl)methyl]-3-{[(2S)-oxetan-2-yl]methyl}-3H-imidazo[4,5-b]pyridine-5-carboxylic acid] | 9.3
10 | O=C(O)c1ccc2nc(Cc3ccc(Oc4ccnc(Cc5ccc(Cl)cc5)n4)cc3)n(C[C@@H]3CCO3)c2c1 [Compound 187a, 2-{[4-({2-[(4-chlorophenyl)methyl]pyrimidin-4-yl}oxy)phenyl]methyl}-1-{[(2S)-oxetan-2-yl]methyl}-1H-1,3-benzodiazole-6-carboxylic acid] | 8.9
11 | O=C(O)c1ccc2nc(CN3CCC(Oc4ccnc(Cc5ccc(Cl)cc5)n4)CC3)n(Cc3cn[nH]c3)c2n1 [Compound 193, 3-((1H-pyrazol-4-yl)methyl)-2-((4-((2-(4-chlorobenzyl)pyrimidin-4-yl)oxy)piperidin-1-yl)methyl)-3H-imidazo[4,5-b]pyridine-5-carboxylic acid] | 9.7
12 | CCOCCn1c(CN2CCC(Oc3ccnc(Cc4ccc(Cl)cc4)n3)CC2)nc2ccc(C(=O)O)nc21 [Compound 194, 2-((4-((2-(4-chlorobenzyl)pyrimidin-4-yl)oxy)piperidin-1-yl)methyl)-3-(2-ethoxyethyl)-3H-imidazo[4,5-b]pyridine-5-carboxylic acid] | 8.5

Further lines, results first:

Row | GLP1R cAMP Stimulation DR: pEC50 | SMILES
13 | 9.2 | O=C(O)c1ccc2nc(Cc3ccc(Oc4ccnc(Cc5ccc(Cl)cc5)n4)cc3)n(C[C@@H]3CCO3)c2n1 [Compound 186a, 2-{[4-({2-[(4-chlorophenyl)methyl]pyrimidin-4-yl}oxy)phenyl]methyl}-3-{[(2S)-oxetan-2-yl]methyl}-3H-imidazo[4,5-b]pyridine-5-carboxylic acid]
14 | 10.3 | O=C(O)c1ccc2nc(C[C@H]3CC[C@H](Oc4nc(Cc5ccc(Cl)cc5)ncc4F)CC3)n(C[C@@H]3CCO3)c2n1 [Compound 188a, 3-{[(2S)-oxetan-2-yl]methyl}-2-{[trans-4-({2-[(4-chlorophenyl)methyl]-5-fluoropyrimidin-4-yl}oxy)cyclohexyl]methyl}-3H-imidazo[4,5-b]pyridine-5-carboxylic acid]
15 | 9.2 | O=C(O)c1ccc2nc(Cc3ccc(Oc4nc(Cc5ccc(Cl)cc5)ncc4F)cc3)n(C[C@@H]3CCO3)c2n1 [Compound 189a, 2-{[4-({2-[(4-chlorophenyl)methyl]-5-fluoropyrimidin-4-yl}oxy)phenyl]methyl}-3-{[(2S)-oxetan-2-yl]methyl}-3H-imidazo[4,5-b]pyridine-5-carboxylic acid]
16 | 9.4 | O=C(O)c1ccc2nc(Cc3ccc(Oc4nc(Cc5ccc(Cl)cc5)ncc4F)cc3F)n(C[C@@H]3CCO3)c2n1 [Compound 190a, 2-{[4-({2-[(4-chlorophenyl)methyl]-5-fluoropyrimidin-4-yl}oxy)-2-fluorophenyl]methyl}-3-{[(2S)-oxetan-2-yl]methyl}-3H-imidazo[4,5-b]pyridine-5-carboxylic acid]
17 | 9.5 | O=C(O)c1ccc2nc(Cc3ccc(Oc4nc(Cc5ccc(Cl)cc5)ncc4F)cc3F)n(C[C@@H]3CCO3)c2c1 [Compound 191a, 2-{[4-({2-[(4-chlorophenyl)methyl]-5-fluoropyrimidin-4-yl}oxy)-2-fluorophenyl]methyl}-1-{[(2S)-oxetan-2-yl]methyl}-1H-1,3-benzodiazole-6-carboxylic acid]
18 | 6.9 | O=C(O)c1ccc2nc(CN3CC=C(c4cnc5ccc(Cc6ccc(Cl)cc6F)nn45)CC3)n(C[C@@H]3CCO3)c2n1 [Compound 192a, 2-[(4-{6-[(4-chloro-2-fluorophenyl)methyl]imidazo[1,2-b]pyridazin-3-yl}-1,2,3,6-tetrahydropyridin-1-yl)methyl]-3-{[(2S)-oxetan-2-yl]methyl}-3H-imidazo[4,5-b]pyridine-5-carboxylic acid]

Reference: patent US11926626B2, “Heterocyclic GLP-1 agonists” (Gasherbrum Bio, Inc., priority 2020, dated 2024)
